Data from US6894068B2, “Substituted benzimidazoles as non-nucleoside inhibitors of reverse transcriptase” (The United States of America as represented by the …, priority 1997, dated 2005).
Where two headings read alike, the source gives them in different places.

How the values were obtained:
Assay type in all cases: cell-based
[1] = tested on: HIV-1 isolate Y181C; assay: Cytopathic cell killing assay, MT-4 cells, isolate Y181C
Text: (§1) The various HIV isolates tested in the Figures are those corresponding to wild-type virus (NL4-3) and the other strains listed by their RT mutations. The three 4×AZT isolates included in the Figures represent AZT drug-resistant variants. For example, the 4×AZT/L100I isolate has five mutations: four mutations confer increased resistance to AZT, and the other mutation is located within the NNRTI binding pocket. TZB and nevir. (nevirapine) are two well-known NNRTIs, included in this experiment for comparison purposes.
(§2) In this Example, the antiviral and cellular toxicity of NNRTIs was investigated, using the cytopathic cell killing assay described by Yang (Yang et al., “Characteristics of a Group of Non-nucleoside Reverse Transcriptase Inhibitors with Structural Diversity and Potent Anti-Human Immunodeficiency Virus Activity,” Leukemia 9:S75-S85 [1995]). Briefly, in this method cells (e.g., the CEM-SS cell line, available from the NIAID AIDS Research and Reference Program [ARRRP]) were seeded at a density of 5×10^3 cells/well, into the wells of a 96-well microtiter plate. The cells were then infected with HIV virus (either mutant or WT), at a multiplicity of infection (MOI) previously determined to provide complete cell killing by 6 days of culture post-infection (e.g., MOI of 0.01-0.05). Each of the HIV isolates was pre-titered to induce equivalent levels of infection based on cell killing or virus production, prior to their use in these assays. A range of test compound concentrations was added to the wells in triplicate (e.g., serial half-log dilutions) to evaluate inhibition of HIV infection. Controls for each assay included drug controls (drug colorimetric control wells), drug cytotoxicity control wells (cells with drug), virus control wells (cells with virus), and cell viability controls (cells only). Positive control drugs (e.g. AZT and ddC) were also run in parallel.
(§3) After six days of incubation at 37° C., cell viability was determined spectrophotometrically at 450 nm for each well, using the metabolic reduction of XTT to a soluble colored formazan. (See, Gartner and Popovic, “Virus Isolation and Production, in Aldovini and Walker (eds.), Techniques in HIV Research, Stockton Press, NY, pp. […] [1991]; and Nara and Fischinger, “Quantitative Infectivity Assay for HIV-1 and HIV-2, ” Nature 332:469-470 [1988]).
(§4) The in vitro therapeutic index (TI50) was defined as the fold-difference between the EC50 and IC50. The results for the various compounds are included in FIGS. 8 and 19.

[2] = tested on: HIV-1 isolate L100I; assay: Cytopathic cell killing assay, MT-4 cells, isolate L100I
Text: as §1, §2, §3, §4

[3] = tested on: HIV-1 isolate L74V; assay: Cytopathic cell killing assay, MT-4 cells, isolate L74V
Text: as §1, §2, §3, §4

[4] = tested on: HIV-1 isolate 4xAZT (AZT drug-resistant variant); assay: Cytopathic cell killing assay, MT-4 cells, isolate 4xAZT; conditions: Human immunodeficiency virus 1, MT4, read-out: EC50, isolate 4XAZT
Text: as §1
(§5) In this Example, the antiviral and cellular toxicity of NNRTIs was investigated, using the cytopathic cell killing assay described by Yang (Yang et al., “Characteristics of a Group of Non-nucleoside Reverse Transcriptase Inhibitors with Structural Diversity and Potent Anti-Human Immunodeficiency Virus Activity,” Leukemia 9:S75-S85 [1995]). Briefly, in this method cells (e.g., the CEM-SS cell line, available from the NIAID AIDS Research and Reference Program [ARRRP]) were seeded at a density of 5×10^3 cells/well, into the wells of a 96-well microtiter plate. The cells were then infected with HIV virus (either mutant or WT), at a multiplicity of infection (MOI) previously determined to provide complete cell killing by 6 days of culture post-infection (e.g., MOI of 0.01-0.05). Each of the HIV isolates was pre-titered to induce equivalent levels of infection based on cell killing or virus production, prior to their use in these assays. A range of test compound concentrations was added to the wells in triplicate (e.g., serial half-log dilutions) to evaluate inhibition of HIV infection. […]
(§6) After six days of incubation at 37° C., cell viability was determined spectrophotometrically at 450 nm for each well, using the metabolic reduction of XTT to a soluble colored formazan. (See, Gartner and Popovic, “Virus Isolation and Production, in Aldovini and Walker (eds.), Techniques in HIV Research, Stockton Press, NY, pp. […] [1991]; and Nara and Fischinger, “Quantitative Infectivity Assay for HIV-1 and HIV-2, ” Nature 332:469-470 [1988]). […]

[5] = tested on: WT and HIV-1 variants containing amino acid substitutions in RT; conditions: cytopathic cell killing assay, NNRTI-resistant HIV isolates
Text: In these Tables, antiviral data are reported as the quantity of drug in μM required to reduce cell killing or virus production by 50% (EC50). The various HIV isolates tested in the Figures are those corresponding to wild-type virus (NL4-3) and the other strains listed by their RT mutations. The three 4×AZT isolates included in the Figures represent AZT drug-resistant variants.
Briefly, in this method cells (e.g., the CEM-SS cell line, available from the NIAID AIDS Research and Reference Program [ARRRP]) were seeded at a density of 5×10^3 cells/well, into the wells of a 96-well microtiter plate. The cells were then infected with HIV virus (either mutant or WT), at a multiplicity of infection (MOI) previously determined to provide complete cell killing by 6 days of culture post-infection (e.g., MOI of 0.01-0.05). Each of the HIV isolates was pre-titered to induce equivalent levels of infection based on cell killing or virus production, prior to their use in these assays. A range of test compound concentrations was added to the wells in triplicate (e.g., serial half-log dilutions) to evaluate inhibition of HIV infection. Controls for each assay included drug controls (drug colorimetric control wells), drug cytotoxicity control wells (cells with drug), virus control wells (cells with virus), and cell viability controls (cells only). Positive control drugs (e.g. AZT and ddC) were also run in parallel.
as §3
Antiviral and toxicity data were reported as the quantity of drug required to inhibit 50% of virus-induced cell killing or virus production (EC50), and the quantity of drug required to […] (IC50). The in vitro therapeutic index (TI50) was defined as the fold-difference between the EC50 and IC50.

[6] = tested on: HIV-1 isolate K101E; assay: Cytopathic cell killing assay, MT-4 cells, isolate K101E
Text: as §1, §2, §3, §4

[7] = tested on: HIV-1 isolate V108I; assay: Cytopathic cell killing assay, MT-4 cells, isolate V108I
Text: as §1, §2, §3, §4

[8] = tested on: HIV-1 isolate V106A; assay: Cytopathic cell killing assay, MT-4 cells, isolate V106A
Text: as §1, §5, §6

[9] = tested on: HIV-1 WT virus (NL4-3); assay: microbe, parasite or virus in culture; conditions: Human immunodeficiency virus 1, NL43, CEM-SS
Summary of the method: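 CEM-SS cells (5×10^3/well) infected with HIV-1 NL4-3 at MOI giving complete killing by day 6 (e.g., 0.01-0.05), with half-log compound dilutions in triplicate. After six days at 37° C., viability measured by XTT reduction at 450 nm; CIC50 is 50% inhibitory concentration of cytopathic killing.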

[10] = tested on: HIV-1 isolate 4xAZT/Y181C; assay: Cytopathic cell killing assay, MT-4 cells, isolate 4xAZT/Y181C; conditions: Human immunodeficiency virus 1, MT4, read-out: EC50, isolate 4XAZT/Y181C
Text: as §1, §2, §3, §4

[11] = tested on: HIV-1 isolate Y188C; assay: Cytopathic cell killing assay, MT-4 cells, isolate Y188C
Text: as §1, §2, §3, §4

[12] = tested on: HIV-1 isolate A98G; assay: Cytopathic cell killing assay, MT-4 cells, isolate A98G
Text: as §1, §2, §3, §4

[13] = tested on: HIV-1 isolate Y188H; assay: Cytopathic cell killing assay, isolate Y188H; conditions: Human immunodeficiency virus 1, read-out: EC50, isolate Y188H
Text: as §1, §2, §3, §4

[14] = Human immunodeficiency virus 1, MT4, read-out: EC50, isolate Y181C, Table 8, MT-4 cells
[15] = Human immunodeficiency virus 1, MT4, read-out: EC50, isolate K101E, Table 8, MT-4 cells

In the case of `Nc1cccc2c1nc(-c1c(F)cccc1F)n2Cc1c(F)cccc1F` [Compound 3300, 4-amino-1-(2,6-difluorobenzyl)-2-(2,6-difluorophenyl)benzimidazole], the EC50 [1, 14] is reported as 6 µM, the EC50 ([2]; Human immunodeficiency virus 1, MT4, read-out: EC50, isolate L1001, Table 8, MT-4 cells) is reported as 1300 nM and the EC50 ([3]; Human immunodeficiency virus 1, MT4, read-out: EC50, isolate L74V, Table 8, MT-4 cells) is reported as 300 nM. For the same compound, the EC50 [4] was 200 nM, the “cross-resistance profile, result in words” value [5] was “inhibit HIV-1 better than TZB” and the EC50 [6, 15] was > 20 µM. For the same compound, the EC50 ([7]; Human immunodeficiency virus 1, MT4, read-out: EC50, isolate V1081, Table 8, MT-4 cells) was > 20000 nM, the EC50 ([8]; Human immunodeficiency virus 1, MT4, read-out: EC50, isolate V106A, Table 8, MT-4 cells) was > 20000 nM and the EC50 ([9]; Table 7, drug concentration required to reduce cell killing or virus production by 50%, WT, read-out: EC50) was 460 nM. For the same compound, the EC50 [10] was > 10000 nM, the EC50 ([11]; Human immunodeficiency virus 1, MT4, read-out: EC50, isolate Y188C, Table 8, MT-4 cells) was 2.7 µM and the EC50 ([11]; Human immunodeficiency virus 1, MT4, read-out: EC50, isolate Y188C, Table 10, values in μM) was 2 µM. For the same compound, the EC50 ([12]; Human immunodeficiency virus 1, MT4, read-out: EC50, isolate A98G, Table 8, MT-4 cells) was 1500 nM and the EC50 [13] was > 50000 nM.
`CCc1cccc2c1nc(-c1c(F)cccc1F)n2Cc1c(F)cccc1F` [Compound 4011, 1-(2,6-difluorobenzyl)-2-(2,6-difluorophenyl)-4-ethylbenzimidazole] was tested, and the EC50 [1, 14] was > 10 µM, the EC50 ([1]; Human immunodeficiency virus 1, MT4, read-out: EC50, isolate Y181C, Table 10, values in μM) was 7.18 µM and the EC50 ([2]; Human immunodeficiency virus 1, MT4, read-out: EC50, isolate L100I) was 2480 nM. It also gave an EC50 ([2]; Human immunodeficiency virus 1, MT4, read-out: EC50, isolate L1001) of 600 nM, an EC50 ([3]; Human immunodeficiency virus 1, MT4, read-out: EC50, isolate L74V) of 1500 nM and an EC50 [4] of 3000 nM. The “cross-resistance profile, result in words” value [5] was “inhibit HIV-1 better than TZB”, the EC50 [6, 15] was > 20 µM and the EC50 ([6]; Human immunodeficiency virus 1, MT4, read-out: EC50, isolate K101E, Table 10, values in μM) was > 50 µM. For the same compound, the EC50 ([7]; Human immunodeficiency virus 1, MT4, read-out: EC50, isolate V108I) was > 50000 nM, the EC50 ([7]; Human immunodeficiency virus 1, MT4, read-out: EC50, isolate V1081) was 3000 nM and the EC50 ([8]; Human immunodeficiency virus 1, MT4, read-out: EC50, isolate V106A) was > 20000 nM. For the same compound, the EC50 [9] was 820 nM, the EC50 [10] was > 20000 nM and the EC50 ([11]; Human immunodeficiency virus 1, MT4, read-out: EC50, isolate Y188C) was 5.5 µM. It also gave an EC50 ([12]; Human immunodeficiency virus 1, MT4, read-out: EC50, isolate A98G) of 8000 nM and an EC50 [13] of 13200 nM.
